# Conditions: buffer; pH 7.4; 200.0 µM
row,SMILES,solubility kinetic [µg/mL]
1,O=[N+]([O-])c1cccc(-c2noc(COc3ccccc3)n2)c1,0.9
2,COc1ccccc1NC(=O)CCn1c(=S)oc2ccccc21,7
3,O=C(Nc1cc([N+](=O)[O-])ccc1O)c1cccc([N+](=O)[O-])c1,37.1
4,Cc1ccccc1S(=O)(=O)/N=C(/c1ccccc1)N(C)C,44.9
5,Cc1cc(-c2nc(-c3ccc(C(C)(C)C)cc3)no2)no1,< 0.2
6,COc1ccc(OC)c(/C=C/C(=O)NC2=NCCS2)c1,4
7,COc1cccc(Oc2c(C)oc3c(CN4CCCC4)c(O)ccc3c2=O)c1,40.6
8,Cc1nn(C)c(C)c1CNC(=O)Nc1ccc2c(c1)OCO2,> 45.3
9,CS(=O)(=O)N1CCC(C(=O)N2CCN(Cc3ccccc3)CC2)CC1,> 54.8
10,O=C(COC(=O)C1CC1)NCCc1ccccc1,> 37.1
11,CC(=O)N/C(N)=N/c1nc(=O)c2ccccc2s1,3.5
12,Cc1ccc(CC(=O)NCCC(=O)O)cc1,> 33.2
13,COC(=O)CNC(=O)c1cc(-c2ccncc2)nc2ccccc12,> 48.2
14,O=C(NC1CCN(C(=O)Nc2cccc(Cl)c2)CC1)c1ccco1,46.1
15,O=C(Nc1nc(-c2cccs2)c(C(=O)C(F)(F)F)s1)c1ccco1,3.8
16,CN1CCSc2ccc(C(=O)Nc3cccc(F)c3)cc21,1.4
17,CN(C)CCCN1C(=O)CSC1c1ccc([N+](=O)[O-])cc1.Cl (stereo not drawn),47.6
18,CCOCCCNC(=O)N[C@H](C(=O)OC)C(C)CC (stereo partly drawn),> 41.2
19,Cc1ccsc1/C=C(\C#N)C(=O)NCCCN1CCOCC1,45.7
20,Cn1c(=O)c2ccccc2n(CC(=O)NC2CCCC2)c1=O,40.2
21,COc1cccc(CNC(=O)c2cccnc2Sc2ccccc2)c1,5.6

row,SMILES,solubility kinetic [µg/mL]
1,COc1cc2c(cc1OC)-c1cc(Nc3cccc(C)c3)nc(=O)n1CC2,2.5
2,CCOC(=O)c1cnc2[nH]c3ccccc3n2c1=O,23
3,CN(C)CCCN1C(=O)c2cccc3cccc(c23)C1=O,> 42.4
4,CC(NC(=O)c1cc2cc(Cl)ccc2oc1=N)c1ccccc1 (stereo not drawn),4.2
5,NC(=O)c1ccsc1NC(=O)c1ccc([N+](=O)[O-])o1,20.5
6,Cc1c(C(=O)N2CCCC(C(F)(F)F)C2)oc2ccccc12 (stereo not drawn),31.8
7,Cc1noc(C)c1COc1ccc(C(=O)Nc2ccccn2)cc1,7.6
8,O=C(CCCCl)Nc1nc(-c2ccc3c(c2)OCCO3)cs1,1.1
9,CCCn1c(SCC(=O)NCCCN2CCCC2=O)nc2ccccc2c1=O,> 60.4
10,CCOc1ccc(C(=O)CCC(=O)NC(C)C(=O)OC)cc1 (stereo not drawn),> 46.1
11,CCOC(=O)C1=C(O)C(=O)N(c2ccccc2)C1c1cccc([N+](=O)[O-])c1 (stereo not drawn),52
12,CCCCCCC1CC(=O)NC(=O)N1 (stereo not drawn),27.8
13,Clc1ccccc1Sc1ccc(-c2ccccn2)s1,< 0.7
14,Cc1cc(Cl)cc(C)c1OCC(=O)NC1CCCCCC1,1.9
15,O=S(=O)(c1ccccc1)N1CCNCC1,26.6
16,CCOc1ccccc1NC(=O)NC1CCCc2ccccc21 (stereo not drawn),0.5
17,COc1ccc(-c2ccc3c(N)c(C(=O)NC(C)C)sc3n2)cc1OC,30.1
18,CCOc1cccc(/C=N/NC(=O)c2cccnc2)c1O,> 42.8
19,CN1CCN(c2ccccc2NC(=O)c2cccc([N+](=O)[O-])c2)CC1,> 51.1
20,CCOc1ccc(NC(=O)COC(=O)CN2CCCCCC2=O)cc1,> 52.3
21,COc1ccc(/C=C/C(=O)Nc2cc(S(=O)(=O)N3CCOCC3)ccc2OC)cc1,8

row,SMILES,solubility kinetic [µg/mL]
1,Cc1nn(-c2ccccc2)c(-c2ccccc2[N+](=O)[O-])c1C(=O)O,> 48.5
2,O=c1[nH]c(=S)[nH]c(O)c1/C=C1/C=c2ccccc2=N1,1.8
3,O=C1NC2=C(C(=O)CCC2)C(c2ccccc2Cl)N1 (stereo not drawn),39.1
4,CC(C)CCNc1nc(N)c([N+](=O)[O-])c(NC2CCCCC2)n1,< 0.1
5,Cc1cc2oc(=O)cc(CN3CCCCC3C)c2cc1Cl (stereo not drawn),4.5
6,CCc1ccccc1N1C(=O)CC(Sc2nccc(C)n2)C1=O (stereo not drawn),47.3
7,CC(=O)NCCCNS(=O)(=O)c1ccc(C)cc1,32.2
8,COC(=O)c1sccc1NC(=O)Nc1ccc(F)cc1F,26.6
9,CCc1ccccc1NC(=O)c1ccc(-c2csc(C)n2)cc1,1
10,COc1cc(-n2c(C)nc3cccnc32)c(Cl)cc1C(=O)O,> 47.7
11,CCC[C@H](N[C@@H](CCC)[C@H](O)c1ccccc1)[C@H](O)c1ccccc1,5.4
12,CC(OC(=O)C1=Cc2ccccc2OC1)C(=O)NCc1ccco1 (stereo not drawn),7.1
13,CC(=O)Nc1ccc(C(=O)COC(=O)CCN2C(=O)C3CC=CCC3C2=O)cc1 (stereo not drawn),> 59.8
14,C=CCn1c(O)c(/C=C2/C=c3ccccc3=N2)c(=O)[nH]c1=S,1.2
15,CSCC(CO)NS(=O)(=O)c1ccc(C)cc1 (stereo not drawn),> 41.3
16,CSc1nnc(C)c(=O)n1COC(=O)/C=C/c1ccccc1,> 47.6
17,CCOCCCN1CC(C(=O)NCc2ccc3c(c2)OCO3)CC1=O (stereo not drawn),> 52.3
18,Cc1ccc(N(CC(=O)N2CCN(Cc3ccccc3)CC2)S(C)(=O)=O)cc1C,50.9
19,Cc1ccc(NC(=O)CN2C(=O)NC3(CCCc4ccccc43)C2=O)c([N+](=O)[O-])c1 (stereo not drawn),36.5
20,CCOC(=O)c1csc(N)c1-c1ccc([N+](=O)[O-])cc1,5.5
21,NC(N)=NS(=O)(=O)c1ccc(NC(=S)NC(=O)c2ccccc2)cc1,3.9

row,SMILES,solubility kinetic [µg/mL]
1,Cn1c(-c2cc3ccccc3oc2=O)nc2ccccc21,2.5
2,Cc1ccc(NC(=O)c2ccc(Cl)cc2Cl)cc1O,12
3,CCCn1c(SCC(=O)N2CCc3ccccc3C2)nc(O)cc1=O,> 53.9
4,CC1CCN(CCCNc2cc(NCCO)c([N+](=O)[O-])c3nonc23)CC1,> 56.8
5,Cc1cccc(OCCCC(=O)NC2CCCCC2)c1,14.1
6,CCOCCOc1cccc(C(=O)NC(c2ccccc2)C(C)C)c1 (stereo not drawn),6.2
7,O=[N+]([O-])c1cccc(S(=O)(=O)N2CN(c3ccc(Br)cc3)c3nc4ccccc4nc32)c1,1.6
8,COC(=O)/C(C#N)=C/c1c(Oc2cc(C)cc(C)c2)nc2ccccn2c1=O,1.7
9,Cc1ccc(NC(=O)C/C(N)=N/OC(=O)c2ccccc2)cc1,2.2
10,CCOc1ccccc1N1CC(C(=O)N(CC)C2CCS(=O)(=O)C2)CC1=O (stereo not drawn),> 59.2
11,O=C(CSc1cccc[n+]1[O-])NCCCc1ccccc1,> 45.4
12,COc1ccc(OC)c(S(=O)(=O)Nc2cc(C)on2)c1,> 44.7
13,CCC(C)NC(=O)Cn1nc(C(F)(F)F)c2c1CCC2 (stereo not drawn),> 43.4
14,Cc1ccc(/C=C/C(=O)OCC(=O)NCc2cccs2)o1,21.8
15,CC(OC(=O)C1=COCCO1)C(=O)Nc1ccccc1C#N (stereo not drawn),38.8
16,CC(=O)N1CCN(C(=O)c2cccc(S(=O)(=O)N3c4ccccc4CC3C)c2)CC1 (stereo not drawn),> 64.1
17,COc1ccccc1NC(=O)c1ccccc1Nc1ccccc1,0.5
18,Cc1ccc2sc(=O)[nH]c2c1,19.4
19,O=C(NC1CCSc2ccccc21)c1ccccc1F (stereo not drawn),12.4
20,CCc1ccc(NS(=O)(=O)c2ccc3c(c2)oc(=O)n3C)cc1,2.1
